A word on the Tmax: it is the time at which the peak concentration occurs.

Series [1] is described as follows: Metabolism study of PGCN and GML in simulated intestinal fluid (SIF). It is filed as in vitro ADME. The following applies: SIF pH 6.8, 37 °C, 2 h. Here is the method: (§1) Simulated gastric fluid (SGF, pH 1.2) and simulated intestinal fluid (SIF, pH 6.8) were prepared based on Chinese Pharmacopeia (2010) and have been depicted previously. 100 μg PGCN or GML was added to 4 ml of either SGF or SIF to yield 4 reaction systems, i.e., PGCN/SGF (213.47 nM), PGCN/SIF (213.47 nM), GML/SGF (220.99 nM), GML/SIF (220.99 nM), respectively. Polysaccharides extracted in RS were added to these 4 reaction systems in accordance with the actual chromone-polysaccharide proportion, with each reaction further became three sub-systems, i.e., 0 polysaccharide/chrome, 1/2 polysaccharide/chromone, and pan-polysaccharide/chromone. Meanwhile, these 12 systems were allowed to react at 37 °C. Following 2 h, the reaction was stopped by 100 °C boiling for 10 min. Subsequently, these systems were evaporated to dryness and the residue was reconstituted in 1 ml methanol. After centrifugation at 3,000 rpm for 10 min, the supernatant was collected and used for HPLC analysis.

Series [2] can be described thus: Metabolism study of PGCN and GML in simulated gastric fluid (SGF). Format: in vitro ADME. The following applies: SGF pH 1.2, 37 °C, 2 h. How it is done:
as §1

Series [3] has as its system Caco-2 cell monolayers. As to the kind of experiment: Caco-2 bidirectional transport assay of cimifugin. It is filed as in vitro ADME. To be noted: for effect on flux/transport of cimifugin across Caco-2 monolayers: pretreatment or co-application with cimifugin, A→B flux, similar for B→A. How it is done: Caco-2 cells were obtained from the American Type Culture Collection (ATCC). […] For the permeability test, cells were seeded in transwell supports with polycarbonate membrane (0.4 μm, 1.12 cm^2, Corning Costar) at a density of 6 × 10^4 cells/cm^2. The integrity of the monolayers was tested by measuring the transepithelial electrical resistance (TEER) before and after every experiment. Only monolayers with TEER >200 Ω/cm^2 were used. Test compounds in transport buffer were added to the donor compartments of either apical (A → B) or basolateral (B → A) wells of the Insert System and incubated at 37 °C. Samples were collected at 0, 30, 60, 90, 120, and 150 min time points and analyzed for HPLC analysis of content of cimifugin as described above.
(In general: Passage across Caco-2 layers is used to estimate intestinal permeability.)

Series [4] in a line: Transport of chromones across semi-permeable membrane (dialysis bag) with or without RS polysaccharide. To be noted: 6 h; for total chromone: inside plus outside the membrane; for total chromone / Fluid inside the semi-permeable membrane, chromone / Fluid outside the semi-permeable membrane, chromone: pH 7.8, 37 °C; for Fluid inside the semi-permeable membrane, chromone / Fluid outside the semi-permeable membrane, chromone: sum of PGCN and cimifugin. Format: physicochemical. How it is done: Dialysis bags made by semi-permeable membrane materials were used in this analysis. ~3 cm long dialysis bags were first processed as the following procedures in succession: 1) boiled for 5 min in distilled water; 2) rinsed by 60 °C water for 2 min; 3) rinsed by small intestine buffer for 2 min; 4) rinsed by small intestine buffer for 2 min; 5) immersed in buffer at 4 °C. After 12 h, these processed dialysis bags were tied tightly at one end to form a dialysis bag. 1 ml small intestine buffer (pH 7.8) containing cimifugin, PGCN, cimifugin + polysaccharide, or PGCN + polysaccharide was added into this bag and a glass bead was put in to keep this bag vertical. When the other end was tied (an air bubble was retained), this dialysis bag was suspended in 15 ml small intestine buffer. This system was left to stand for 6 h in 37 °C water bath and chromone content inside and outside of this semi-permeable membrane was measured by HPLC analysis.

Series [5] is described as follows: Pharmacokinetic measurement of chromone (cimifugin in rat plasma after oral chromone extracts). Format: in vivo, Sprague-Dawley rats. To be noted: for Tmax: male, Sprague-Dawley, rat, plasma, po, 4 g crude drug/kg, oral chromone extracts 4 g crude drug/kg for 5 days, plasma HPLC. Here is the method: To explore the influence of RS polysaccharide on the pharmacokinetics of chromones, 2.11 g, 1.05 g RS polysaccharide, and 2.11 g glucuronic acid were added to the three aliquots of chromone components, with one aliquot left as control. Thus, totally four test compounds were obtained, including chromone/pan-polysaccharide (CP), chromone/1/2polysaccharide (CHP), chromone/glucuronic acid (CG), and chromone, which served as control. Forty male Sprague-Dawley rats were used in this experiment. They were randomly divided into 4 groups, each consisting of 10 rats. The rats in these four groups were orally administered with CP, CHP, CG and chromones at the dose of 4 g crude drug (equivalent to 10 ml RS extracts) per kg body weight, respectively for five consecutive days. After the final drug delivery of day 5 (at 0.5, 1, 1.5, 2, 3, 5, 8, 12, 16, and 24 h/day), rats were anesthetized by ether inhalation and rat blood samples were obtained from the orbit vein and centrifuged immediately at 3,000 rpm for 10 min to yield plasma. Each plasma sample (100 μl) was mixed with 20 μl of 70% perchloric acid and vortexed and centrifuged at 3,000 rpm for 10 min. The supernatant were subjected to 0.45 μm microporous membrane and the filtrate was collected for subsequent high performance liquid chromatography (HPLC) analysis. Chromatographic separation and analysis using an L-2000 Elite HPLC system has been previously reported. Briefly, the separation of the analytes were performed on a Kromasil C18 column (200 mm × 4.6 mm i.d., particle size 5 μm), equipped with a Shim-pack security guard column at a column temperature of 25 °C. The binary mobile phase consisted of methanol and water. A flow rate of 1.0 ml/min with a gradient elution program as follows: 40–45% methanol at 0–5 min; 45–60% methanol at 5–10 min; 60–80% methanol at 10–15 min; 80–95% methanol at 15–20 min; 95–40% methanol at 20–30 min. The injection volume was 20 μl and detection wavelength was kept at 254 nm.

Series [6] can be described thus: Transformation of cimifugin in small intestine enzyme solution. The following applies: 38 °C. Format: in vitro ADME, Sprague-Dawley rats. Here is the method:
Small intestine segment was taken from ten 12 h-fasting male Sprague-Dawley rats. The intestine tissue was first frozen at −80 °C for 12 h, and then ground and centrifuged at 10,000 rpm for 10 min. The supernatant constituted the enzyme solution used in the experiment. To explore the influence of RS polysaccharide on the metabolism of cimifugin, three groups were designed: control group containing 40 μg cimifugin in 1.2 ml enzyme solution; RS polysaccharide/cimifugin group containing 40 μg cimifugin and 8.7 mg RS polysaccharide in 1.2 ml enzyme solution; glucuronic acid/cimifugin group containing 40 μg cimifugin and 8.7 mg glucuronic acid in 1.2 ml enzyme solution. These groups were put in 38 °C water bath for reaction, while samples were taken at 15 and 30 min. After deproteinization by methanol, these samples were centrifuged at 10,000 rpm for 10 min. Subsequently, the supernatant was collected and analyzed for HPLC analysis as described above.

[7] abbreviates: small intestine buffer pH 7.8, 37 °C, mean ± SD, n = 10.
Where [8] appears, read: apical application (A→B), A: cimifugin, B: polysaccharide, C: LY335979, D: troleandomycin, mean ± SD, n = 10.
Setting [9] is: basolateral application (B→A), A: cimifugin, B: polysaccharide, C: LY335979, D: troleandomycin, mean ± SD, n = 10.

Read-outs that look alike come from different tables or passages of the source.

As to `COc1c2c(cc3oc(C)cc(=O)c13)OC(C(C)(C)OC1OC(CO)C(O)C(O)C1O)C2` [GML, 4′-O-β-D-glucosyl-5-O-methylvisamminol], in series [1], the “transformation in SIF (in words)” value is recorded as “underwent no change”. The “HPLC peak area, GML” value is recorded as 1369720 ± 112480 in series [1] (mean ± SD, n = 10) and 1369608 ± 83550 in series [2] (mean ± SD, n = 10). For the same molecule, in series [2], the “transformation in SGF (in words)” value is “a little GML was converted into PGCN”.
For `Cl.Cl.Cl.O[C@@H](COc1cccc2ncccc12)CN1CCN([C@@H]2c3ccccc3[C@@H]3[C@H](c4ccccc42)C3(F)F)CC1` [LY335979, Zosuquidar Trihydrochloride, reference compound], the “effect on flux/transport of cimifugin across Caco-2 monolayers” value in series [3] is given as “not affected”.
In the case of `COc1c2c(cc3oc(COC4OC(CO)C(O)C(O)C4O)cc(=O)c13)OC(C(C)(C)O)C2` (centres unmarked) [PGCN, prime-O-glucosylcimifugin], in series [4], the total chromone amounted to 105.0 ± 0.1 nmol; the “Fluid inside the semi-permeable membrane, chromone” value is recorded as 15.2 ± 0.5 nmol; the “Fluid outside the semi-permeable membrane, chromone” value came out at 89.8 ± 0.4 nmol. For the same molecule, in series [4] (setting [7]), the “Fluid inside the semi-permeable membrane, PGCN” value worked out at 15.2 ± 0.5 nmol and the “Fluid outside the semi-permeable membrane, PGCN” value came out at 89.8 ± 0.4 nmol. In series [1], the “transformation in SIF (in words)” value was “an overwhelmingly large amount of PGCN was transformed into cimifugin”. In addition, in series [1] (mean ± SD, n = 10), the “HPLC peak area, PGCN” value is reported as 5159 ± 1238. Besides, the “transformation in SGF (in words)” value in series [2] is listed as “a small amount of PCGN was converted into cimifugin”.
For `COc1c2c(cc3oc(CO)cc(=O)c13)O[C@H](C(C)(C)O)C2` [cimifugin], the Tmax in series [5] (read-out: Tmax of cimifugin in rat plasma (first peak of double-peak curve)) amounted to 1.5 h. In series [5] (read-out: Tmax of cimifugin in rat plasma (second peak of double-peak curve)), the Tmax was found to be 8 h. For the same molecule, the “detection in plasma of chromone treated rats (HPLC qualitative analysis)” value in series [5] (whole process of the experiment, data not shown) is reported as “only cimifugin was detected”. For the same molecule, the “stability in small intestine enzyme solutions (in words)” value in series [6] (rat small intestine enzyme solution) was “underwent degradation to a great extent”. Further, in series [3] (setting [8]), the “Basolateral content of cimifugin, 30 min” value was 15.21 ± 2.34 ng; the “Basolateral content of cimifugin, 60 min” value came out at 30.85 ± 3.64 ng; the “Basolateral content of cimifugin, 90 min” value is 143.92 ± 12.32 ng; the “Basolateral content of cimifugin, 120 min” value stood at 236.01 ± 22.86 ng. The “Basolateral content of cimifugin, 150 min” value in series [3] (setting [8]) came to 201.33 ± 15.32 ng. Besides, in series [3] (setting [9]), the “Apical content of cimifugin, 30 min” value came to 26.87 ± 1.54 ng; the “Apical content of cimifugin, 60 min” value is 50.45 ± 2.27 ng; the “Apical content of cimifugin, 90 min” value was determined as 234.35 ± 11.36 ng; the “Apical content of cimifugin, 120 min” value was determined as 354.24 ± 15.47 ng. The “Apical content of cimifugin, 150 min” value in series [3] (setting [9]) stood at 289.46 ± 15.45 ng. Also, in series [4], the total chromone stood at 161.7 ± 0.5 nmol; the “Fluid inside the semi-permeable membrane, chromone” value is recorded as 18.1 ± 0.6 nmol; the “Fluid outside the semi-permeable membrane, chromone” value was 143.6 ± 0.1 nmol. Moreover, in series [4] (setting [7]), the “Fluid inside the semi-permeable membrane, cimifugin” value came out at 18.1 ± 0.6 nmol and the “Fluid outside the semi-permeable membrane, cimifugin” value came out at 143.6 ± 0.1 nmol.
Turning to `O=C[C@H](O)[C@@H](O)[C@H](O)[C@H](O)C(=O)O` [glucuronic acid, Glucuronic acid, reference compound], the “effect on absorption of chromone in the form of cimifugin (AUC at 3 h and later)” value in series [5] (co-administered orally with chromone extract, rat plasma) is recorded as “did not affect”. The “effect on cimifugin degradation / transformation into PGCN in small intestine enzyme solutions (in words)” value in series [6] (added to cimifugin in enzyme solution) was “did not produce any effect on cimifugin transformation”.
Regarding `CO[C@H]1C[C@H](O[C@H]2[C@H](C)[C@@H](O[C@@H]3O[C@H](C)C[C@H](N(C)C)[C@H]3OC(C)=O)[C@@H](C)C[C@@]3(CO3)C(=O)[C@H](C)[C@@H](OC(C)=O)[C@@H](C)[C@@H](C)OC(=O)[C@@H]2C)O[C@@H](C)[C@@H]1OC(C)=O` [troleandomycin, Troleandomycin, reference compound], the “effect on flux/transport of cimifugin across Caco-2 monolayers” value in series [3] is listed as “significantly enhanced”.

Source of the values: article PMC5011688, “Polysaccharide enhances Radix Saposhnikoviae efficacy through inhibiting chromones decomposition in intestinal tract” (Scientific Reports, 2016).
